Among the data in ChEMBL document CHEMBL1782011, “Facile synthesis, vasorelaxant properties and molecular modeling studies of 2-amino-8a-methoxy-4H-pyrano[3,2-c]pyridine-3-carbonitriles” (Eur J Med Chem, 2011) are IC50 values, retold here.

The species named for this assay is Rattus norvegicus. Briefly: Vasodilatory activity in Wistar rat thoracic aorta rings assessed as inhibition of norepinephrine hydrochloride-induced contraction. The class given is functional.

Counter-ions that a name gives are not always drawn.

Take `CCN1CC[C@@]2(OC)OC(N)=C(C#N)[C@@H](c3ccccc3)[C@@H]2C1`: the IC50 (commonly the midpoint of a concentration-inhibition curve) stood at 680 µM. The figure for `CO[C@@]12CCN(C)C[C@H]1[C@H](c1ccc(Cl)cc1)C(C#N)=C(N)O2` is 370 µM; for `CCN1CC[C@@]2(OC)OC(N)=C(C#N)[C@@H](c3ccc(Cl)cc3)[C@@H]2C1` it is 400 µM; for `CO[C@@]12CCN(C)C[C@H]1[C@H](c1ccc(F)cc1)C(C#N)=C(N)O2` it is 520 µM. The figure for `CO[C@@]12CCN(C)C[C@H]1[C@H](c1ccc(C)cc1)C(C#N)=C(N)O2` is 600 µM; for `COc1ccc([C@@H]2C(C#N)=C(N)O[C@]3(OC)CCN(C)C[C@@H]23)cc1` it is 300 µM; for `CCN1CC[C@@]2(OC)OC(N)=C(C#N)[C@@H](c3ccc(OC)cc3)[C@@H]2C1` it is 680 µM. With `CO[C@@]12CCN(C)C[C@H]1[C@H](c1cccs1)C(C#N)=C(N)O2`, the IC50 is 680 µM. In the case of `CCN1CC[C@@]2(OC)OC(N)=C(C#N)[C@@H](c3cccs3)[C@@H]2C1`, the IC50 was found to be 490 µM. The figure for `CO[C@@]12CCN(C)C[C@H]1[C@H](c1ccc(N3CCCCC3)cc1)C(C#N)=C(N)O2` is 450 µM; for `CCN1CC[C@@]2(OC)OC(N)=C(C#N)[C@@H](c3ccc(N4CCCCC4)cc3)[C@@H]2C1` it is 480 µM. The value for `CO[C@@]12CCN(C)C[C@H]1[C@H](c1ccc(N3CCOCC3)cc1)C(C#N)=C(N)O2` was 740 µM; that for `CCN1CC[C@@]2(OC)OC(N)=C(C#N)[C@@H](c3ccc(N4CCOCC4)cc3)[C@@H]2C1` was 640 µM. On to `CO[C@@]12CCN(C)C[C@H]1[C@H](c1ccccc1)C(C#N)=C(N)O2`, for which the concentration for half-maximal inhibition (IC50) is 720 µM. The figure for `COc1cc2nc(N3CCN(C(=O)c4ccco4)CC3)nc(N)c2cc1OC` [PRAZOSIN HYDROCHLORIDE] is 490 µM.
